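All cell lines were grown in 96-well plates and treated with compound for 48 hours. At the GI50, growth is halved. At the TGI there is no net growth.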
Tests used:
Test in all cases: DTP human tumour cell line panel, 48 h
COLO 205 colon = test system: COLO 205 colon
IGROV1 ovarian = test system: IGROV1 ovarian
NCI-H226 lung = test system: NCI-H226 lung
NCI-H460 lung = test system: NCI-H460 lung
OVCAR-4 ovarian = test system: OVCAR-4 ovarian
SF-295 CNS = test system: SF-295 CNS
SK-MEL-28 melanoma = test system: SK-MEL-28 melanoma
SNB-19 CNS = test system: SNB-19 CNS
SR leukemia = test system: SR leukemia
MOLT-4 leukemia = test system: MOLT-4 leukemia

Structure (SMILES) | GI50 (COLO 205 colon) | TGI (COLO 205 colon) | GI50 (IGROV1 ovarian) | TGI (IGROV1 ovarian) | GI50 (NCI-H226 lung) | TGI (NCI-H226 lung) | GI50 (NCI-H460 lung) | TGI (NCI-H460 lung) | GI50 (OVCAR-4 ovarian) | TGI (OVCAR-4 ovarian) | GI50 (SF-295 CNS) | TGI (SF-295 CNS) | GI50 (SK-MEL-28 melanoma) | TGI (SK-MEL-28 melanoma) | GI50 (SNB-19 CNS) | TGI (SNB-19 CNS) | GI50 (SR leukemia) | TGI (SR leukemia) | TGI (MOLT-4 leukemia) | GI50 (MOLT-4 leukemia)
C#Cc1cccc(Nc2ncnc3ccc(-c4cnc(N)nc4)cc23)c1 | 2.99 µM | 13.8 µM | 0.183 µM | 2.26 µM | 1.98 µM | 12.8 µM | 2.95 µM | 14 µM | 2.59 µM | 14.8 µM | 2.56 µM | 12.2 µM | 3.2 µM | 16 µM | 3.15 µM | 21.5 µM | 2.58 µM | > 100 µM |  | 
CSC(=NC(=O)c1ccccc1)SCCSC(=NC(=O)c1ccccc1)SC |  | > 100 µM |  | > 100 µM |  | > 100 µM |  | > 100 µM |  | 87.6 µM |  | > 100 µM |  | > 100 µM |  | > 100 µM |  |  | > 100 µM | 
Cl.[O-]c1cccc2cccnc12.[O-]c1cccc2cccnc12.[O-]c1cccc2cccnc12.[O-]c1cccc2cccnc12.[Ti+4] | 1.08 µM | 3.55 µM |  | 2.92 µM | 7.9 µM | > 89.9 µM | 1.28 µM | 10.2 µM | 0.959 µM |  | 3.09 µM | > 100 µM | 4.33 µM | > 35.4 µM | 70.8 µM | > 100 µM |  |  |  | 
Oc1ccccc1/C=N\Nc1ccccc1 | 5.92 µM | 21.3 µM | 21.7 µM | > 100 µM | 3.13 µM | 31.4 µM | 3.36 µM | > 100 µM | 24.8 µM | > 100 µM | 1.63 µM | 8.07 µM | 5.33 µM | > 100 µM | 13.7 µM | 95 µM |  |  | 55.6 µM | 0.974 µM
Cc1cc(C(=O)CC(Cl)=C(Cl)Cl)c(Cl)cc1Cl | 27.7 µM | 86.1 µM | 22 µM | 82.9 µM | 23.9 µM | 76.3 µM | 23.8 µM | 90.6 µM | 27.6 µM | 72.3 µM | 19.9 µM | 54.8 µM | 33.5 µM | > 100 µM | 35.4 µM | > 100 µM |  |  |  | 
CN(C)c1ccc2cc3c(cc2c1)Oc1ccccc1N3.[Cl][Zn][Cl] |  |  | 12.8 µM | 33.8 µM | 1.73 µM | 4.07 µM | 20.1 µM | 52.2 µM | 2.75 µM | 13.6 µM | 18 µM | 39.7 µM | 2.5 µM | 7.04 µM | 20.6 µM | 52.2 µM | 3.15 µM | > 100 µM | 16.2 µM | 3.1 µM
CCc1cc2c(Nc3ccccc3)c3c(nc2s1)CCCC3 |  | > 100 µM |  | > 100 µM |  |  |  | > 100 µM |  | > 100 µM |  | > 100 µM |  | > 100 µM |  | > 100 µM |  | 47.2 µM | > 100 µM | 
O=C(CCN1CCCC1)Nc1ccc2c(Nc3ccc(Br)cc3)c3ccccc3nc2c1 | 1.85 µM | 4.33 µM | 1.23 µM | 2.59 µM | 1.39 µM | 3.02 µM | 0.337 µM | 1.55 µM | 1.51 µM | 2.92 µM | 1.59 µM | 3.02 µM | 1.63 µM | 3.02 µM | 1.44 µM | 2.79 µM | 0.288 µM | 2.58 µM |  | 
CCOP(=O)(OCC)C(NC(c1ccccc1)c1ccccc1)c1ccsc1 (configuration not stated) |  |  | 37.6 µM | > 100 µM | 13.7 µM | 28.8 µM | 18.7 µM | 53.7 µM |  |  | 18.4 µM | 36.9 µM |  |  |  |  | 23 µM | 98.2 µM | > 100 µM | 25.4 µM
CC(/C=C1\CCC(CN(C)C)C1=O)c1cccc(Br)c1 (configuration not stated) |  | 37.4 µM |  | 19.4 µM |  | 48.8 µM |  | > 70.2 µM |  | 32.3 µM |  | 42.3 µM |  | 31.5 µM |  | 61.2 µM |  |  | 13.3 µM | 
NS(=O)(=O)c1ccc(-n2nc(-c3ccccc3)cc2-c2cc(O)ccc2O)cc1 | > 100 µM | > 100 µM | > 100 µM | > 100 µM | > 100 µM | > 100 µM | > 100 µM | > 100 µM |  |  | > 100 µM | > 100 µM | 94.3 µM | > 100 µM | > 100 µM | > 100 µM |  |  | > 100 µM | 8.71 µM
CCCCCC1CC=CC(NC(=O)OCc2ccccc2)C1/C=C/CCCC1OCCO1 (configuration not stated) |  | > 100 µM |  | > 100 µM |  | > 100 µM |  | > 100 µM |  | > 100 µM |  | > 100 µM |  | > 100 µM |  | > 100 µM |  |  | > 100 µM | 
COC(=O)/C=C(C)/C=C/c1c(C)c(C(C)=O)c(C)n1C |  | > 100 µM |  | > 100 µM |  | > 100 µM |  |  |  | > 100 µM |  | > 100 µM |  |  |  | > 100 µM |  |  | > 100 µM | 
O=C(O)CC(S)C(=O)O.[Li+].[Sb] (configuration not stated) |  |  | > 100 µM | > 100 µM | > 100 µM | > 100 µM | 89.5 µM | > 100 µM | > 100 µM | > 100 µM | 55.3 µM | > 100 µM | 55.5 µM | > 100 µM | > 100 µM | > 100 µM | 32.9 µM | > 100 µM | > 100 µM | 64.8 µM
COc1ccc(Cl)cc1Nc1nc(C(F)(F)F)ccc1C(=O)N/N=C/c1ccccc1Cl | 1.7 µM | 4.18 µM | 2.76 µM | > 24.7 µM | 1.45 µM | 18.2 µM | 1.13 µM | 4.53 µM | 1.93 µM | > 100 µM | 0.27 µM | 1.36 µM | 4.5 µM | > 100 µM | 2.34 µM | > 55.7 µM |  |  |  | 1.88 µM
CC(=O)CCn1[nH]c(=O)c(Cl)c(Cl)c1=O |  |  |  | > 100 µM |  | > 100 µM |  | > 100 µM |  | > 100 µM |  | > 100 µM |  | > 100 µM |  | 31.1 µM |  | > 100 µM | > 100 µM | 

Source: PubChem BioAssay (NCI)
